Reference: US20030225527A1, “Crystals and structures of MST3” (priority 2002, published 2003)
Structures can show the parent of a compound that is named as a salt.

Target: T1, MST3 kinase domain (Homo sapiens, UniProt Q9Y6E0)
T1 construct: 5 μg/ml MST3 kinase domain; Met-Ser-Leu (vector-encoded residues) (N); Glu-Gly-His6 (C); made in house; host or cells: E. coli
Assay: MST3 kinase assay (PK/LDH-coupled, loss of NADH at 340 nm)
Format: biochemical
Conditions: purified MST3 kinase domain 5 μg/ml, 10 μM ATP, 400 μM MST3 peptide, 1 mM MnCl2

T1 sequence (Q9Y6E0 36-286 limits assumed): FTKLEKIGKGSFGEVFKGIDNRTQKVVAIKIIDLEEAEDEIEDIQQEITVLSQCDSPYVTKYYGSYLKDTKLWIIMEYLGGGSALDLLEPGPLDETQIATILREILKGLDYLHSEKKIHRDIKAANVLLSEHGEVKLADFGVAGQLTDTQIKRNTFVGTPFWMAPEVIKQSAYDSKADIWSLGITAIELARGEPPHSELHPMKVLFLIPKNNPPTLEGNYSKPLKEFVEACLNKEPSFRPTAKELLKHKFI

## O=S(=O)(NCCNCC=Cc1ccc(Br)cc1)c1cccc2cnccc12 [H89, N-[2-(p-Bromocinnamylamino)ethyl]-5-isoquinolinesulfonamide.2HCl]
  IC50: 30 µM

## O=S(=O)(c1cccc2c(Cl)cccc12)N1CCCNCC1 [ML-9, 1-(5-Chloronaphthalene-1-sulfonyl)-1H-hexahydro-1,4-diazepine.HCl]
  IC50: 18 µM
